Experimental findings from patent US20110144014A1, “CYTOKINE RECEPTOR MODULATORS AND USES THEREOF” (CENTRE HOSPITALIER UNIVERSITAIRE SAINTE-JUSTINE, priority 2005, published 2011) are described below.

The test system of one test is IL-1R/IL-1RacP. The experiment in a line: IL-1-induced PGE2 synthesis in endothelial cells. It is filed as cell-based, porcine. As for the experimental part:
Efficiencies and inhibitory activities of the mutated peptides were determined by measuring the inhibition of IL-1-induced PGE2 synthesis. […] All peptides were tested at concentration 10^−6M.
The arginine of API-101.10 (SEQ ID NO: 10) was replaced by citrulline—to change from a guanidine to a urea group near the N-terminal. Other mutations (e.g. E to Q in API-101.102 and API-101.103) and a truncated peptide at the C-terminal (API-101.108) were also performed to improve the potency and the efficacy of the peptides. Measurement of PGE2 was performed with piglet brain microvessel endothelial cells and WI-38 human fibroblasts. Some of the mutations were advantageous and gave major increases in potency.
IL-1-induced PGE2 synthesis assay on endothelial cells was used as a screening assay for the peptidomimetics.

The target of the next test is T1, IL-1R (Homo sapiens, UniProt P14778).
T1 sequence (P14778 18-569): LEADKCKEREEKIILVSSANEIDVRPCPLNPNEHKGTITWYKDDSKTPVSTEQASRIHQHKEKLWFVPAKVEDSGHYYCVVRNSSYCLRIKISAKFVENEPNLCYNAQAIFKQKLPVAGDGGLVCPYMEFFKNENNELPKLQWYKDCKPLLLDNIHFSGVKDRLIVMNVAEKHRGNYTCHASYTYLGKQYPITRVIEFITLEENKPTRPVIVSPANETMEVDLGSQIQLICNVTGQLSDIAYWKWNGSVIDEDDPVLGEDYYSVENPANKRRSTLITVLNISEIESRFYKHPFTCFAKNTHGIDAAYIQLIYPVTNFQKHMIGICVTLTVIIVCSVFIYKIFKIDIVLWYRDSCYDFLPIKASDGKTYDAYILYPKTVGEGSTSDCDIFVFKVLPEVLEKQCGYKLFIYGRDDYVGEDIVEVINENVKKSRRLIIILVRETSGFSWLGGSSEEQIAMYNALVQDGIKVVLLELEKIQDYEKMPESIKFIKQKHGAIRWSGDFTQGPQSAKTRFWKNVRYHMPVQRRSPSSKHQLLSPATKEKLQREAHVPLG
T1 sequence (Q9NPH3 21-570 partner): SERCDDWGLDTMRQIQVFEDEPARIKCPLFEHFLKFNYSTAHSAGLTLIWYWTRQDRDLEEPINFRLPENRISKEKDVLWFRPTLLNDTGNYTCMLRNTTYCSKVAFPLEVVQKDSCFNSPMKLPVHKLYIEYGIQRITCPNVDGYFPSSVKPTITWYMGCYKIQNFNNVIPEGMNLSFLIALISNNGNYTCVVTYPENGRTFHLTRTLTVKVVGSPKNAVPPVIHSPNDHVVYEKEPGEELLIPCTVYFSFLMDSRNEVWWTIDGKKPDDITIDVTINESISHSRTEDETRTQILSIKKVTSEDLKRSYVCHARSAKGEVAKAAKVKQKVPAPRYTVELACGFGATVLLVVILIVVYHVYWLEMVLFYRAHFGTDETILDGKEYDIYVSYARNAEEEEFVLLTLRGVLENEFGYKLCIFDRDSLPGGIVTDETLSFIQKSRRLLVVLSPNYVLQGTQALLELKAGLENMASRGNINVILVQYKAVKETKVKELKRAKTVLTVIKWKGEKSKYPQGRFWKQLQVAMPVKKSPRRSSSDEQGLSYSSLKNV
The experiment in a line: IL-1R antagonist activity, structure vs. activity text, assay not stated.

Turning to `CC(C)C[C@@H](NC(=O)[C@@H](CCC(=O)O)NC(=O)[C@H]1CC[C@H]2CC[C@@H](NC(=O)[C@@H](Cc3ccc(O)cc3)NC(=O)[C@H](N)CCCNC(=N)N)C(=O)N21)C(=O)N[C@H](C)C(N)=O` [API-101.110, RY(I^2aa)ELA], in the test with IL-1R/IL-1RacP, the “efficacy relative to API-101.107” value is “twice the efficacy” and the “potency relative to API-101.107” value worked out at 10 fold. On IL-1R, this compound yielded a 50% inhibitory concentration (IC50) of 10 pM.
